The values that follow come from paper PMC12114375, “Discovery of Hydrazineyl Amide Derivative of Pseudolaric Acid B for Reprogramming Tumor-Associated Macrophages Against Tumor Growth” (Molecules, 2025).

Common to all, as to format: cell-based, mouse
Data set [1] relates to ARG1, NOS2, CD206 and MHC II mRNA expression in RAW 264.7 cells. Nature of the data set: qRT-PCR of ARG1, NOS2, CD206, MHC II in RAW264.7 cells at multiple concentrations. As to conditions: RAW 264.7 cells stimulated with IL-4/IL-13, multiple concentrations, 12 h. As to the method: We also extended the test to primary murine macrophages derived from bone marrow (BMDMs), which were cultured in vitro with recombinant mouse M-CSF for 6 days. The BMDMs were then stimulated with IL-4/IL-13, leading to their transformation into M2-like pro-tumoral macrophages. This transformation was characterized by an increase in both ARG1 and CD206 expression and a decrease in both NOS2 and MHC II expression. […] Subsequently, we assessed the capacity of compound 12 to inhibit the M2-like polarization of macrophages using CSF-1-differentiated mouse BMDMs. These cells were treated with IL-4 and IL-13 for 48 h, and the expression levels of CD206, an M2-type marker, and CD86, an M1-type marker, were analyzed via flow cytometry. […]
Figure 2 Compound 12 inhibits the M2-like polarized phenotype of macrophages. […] The expression levels of the markers CD206 and CD86 on induced macrophages were determined by flow cytometry, and the mean fluorescence intensity (MFI) was analyzed with FlowJo (C), or the cells were lysed and immunoblotted to detect the indicated proteins (D). […] Data are represented as means ± SD. ^### p < 0.001 vs. non-stimulated control group, * p < 0.05, ** p < 0.01, *** p < 0.001 vs. stimulated control group. p-values were determined using one-way ANOVA.
On the technique in general: Real-time PCR tracks product formation cycle by cycle.

Data set [2] concerns ARG1 mRNA expression in RAW 264.7 cells. Nature of the data set: qRT-PCR of ARG1 mRNA in IL-4/IL-13-stimulated RAW 264.7 cells. The following applies: Mus musculus, RAW264.7, IL-4/IL-13 (20 ng/mL) plus compound 10 μM, 12 h, stimulated control = 100%, mean ± SD, read-out: ARG1 mRNA Relative Expression (%). An excerpt:
(§1) We first investigated the impacts of a series of commercially available natural pseudolaric acids or their O-pyranosides (Figure 1) on the pro-tumoral phenotype of TAMs, which play a critical role in anti-tumor immune response modulation. […] In contrast, M1-biased macrophages combat tumor growth and bacterial infections by expressing inducible nitric oxide synthase 2 (NOS2), which catalyzes the production of nitric oxide (NO). Recognizing the pivotal roles of ARG1 and NOS2, we utilized these molecules as key biomarkers and effectors for assessing macrophage immune function. In our experiments, the mouse monocyte–macrophage leukemia cell line RAW 264.7 was induced with IL-4/IL-13 to acquire an M2-like pro-tumoral phenotype. Concurrently, the cells were treated with the pseudolaric acid-related natural products 1–7 at a concentration of 10 μM for 12 h. Additionally, PLX3397 was used as a positive control at a concentration of 0.5 μM. […] As shown in Table 1 and Figure S1A, pseudolaric acid B (1), its deacetoxyl analogue 2 (pseudolaric acid C), and β-D-glucoside 7 substantially attenuated the upregulation of ARG1 mRNA expression induced by IL-4/IL-13, with statistically significant effects. In contrast, bis-carboxylic acids analogs 4 (pseudolaric acid C2) and 6 (demethoxydeacetoxypseudolaric acid B) have no significant impact on ARG1 mRNA expression.
(§2) With these carboxylic acid-modified derivatives in hand, we investigated their impact at 10 μM on ARG1 and NOS2 mRNA expression in RAW 264.7 cells pre-stimulated with IL-4/IL-13 to evaluate the effects on the pro-tumor phenotype of macrophages. […] Further removal of one hydroxyl from the glycerol moiety 15 further enhanced the inhibitory effect on ARG1 expression but had no significant impact on NOS2 expression.
(§3) Total RNA was isolated from cells using the EZ-press RNA Purification Kit (EZBioscience, Suzhou, China) and subjected to reverse transcription with the 5×HiScript II qRT SuperMix II (Vazyme, Nanjing, China). PCR was performed with the 2×ChamQ Universal SYBR qPCR Master Mix (Vazyme, Nanjing, China). All primers for qRT-PCR are described in Table S1. The 2^−∆∆Ct method was utilized to calculate the fold change in gene expression, with the expression levels in the stimulated group set as the baseline for normalization.

Another data set concerns Raw264.7 cells. Nature of the data set: Cell viability (CCK-8) of RAW264.7 cells. The following applies: IL-4/IL-13 plus compound 10 μM, 12 h. As to the method:
Cells were seeded in 96-well tissue culture plates. On the next day, cells were exposed to various concentrations of compounds and further cultured for the indicated period. Finally, cell proliferation was determined by using the Cell Counting Kit (CCK-8) (Dojindo, Kumamoto, Japan) assay.
Figure S2. Effects of natural pseudolaric acids 1-4, 6 and their O-pyranosides 5, 7 as well as the derivatives 8-18 o f 1 on Raw264.7 cell viability. Raw264.7 cells were treated with IL-4/IL-13 alone or combined with indicated compounds (10 μM) for 12 h. After incubation, the cell viability was determined using a cell counting kit (CCK-8, Dojindo, Japan) assay.
(1 picture or pasted object on this page, not shown here)

Data set [3] relates to NOS2 mRNA expression in RAW 264.7 cells. Nature of the data set: qRT-PCR of NOS2 mRNA in IL-4/IL-13-stimulated RAW 264.7 cells. The following applies: Mus musculus, RAW264.7, IL-4/IL-13 (20 ng/mL) plus compound 10 μM, 12 h, stimulated control = 100%, mean ± SD, read-out: NOS2 mRNA Relative Expression (%).
Description: as §1, §2, §3

As for `COC(=O)C1=CC[C@@]23CC[C@@H]([C@@](C)(/C=C/C=C(\C)C(=O)O)OC2=O)[C@@]3(OC(C)=O)CC1` [compound 1, pseudolaric acid B], in data set [1], the “mRNA expression levels of ARG1 and CD206” value is “significantly reduced”; the “mRNA expression levels of NOS2 and MHC II” value was “upregulated the mRNA expression levels of NOS2 and MHC II in a dose-dependent manner”. The mrna remaining at 10 µM in data set [2] is 9.9 ± 0.8%. The cell viability entry in the data set with Raw264.7 cells is recorded as “only a minimal reduction in cell viability”. In addition, the activity at 10 µM in data set [3] was 135 ± 19.5%.
